Reference: patent US20210015897A1, “METHODS TO PRODUCE PEPTIDES, POLYPEPTIDES OR CELLS FOR MODULATING IMMUNITY” (IMNATE SARL, priority 2017, published 2021)

Columns and labels:
CD4+ T cells = assay: Proliferation of AAV-specific CD4+ T cells on peptide-loaded dendritic cells (thymidine incorporation); assay type: cell-based, mice
Source text: The peptide of interest is then produced by chemical synthesis together with a potentiating motif made of a cysteine residue added to flanking regions on each side of the epitope (SEQ ID NO: 18).

AAV vector = assay: Immune response to IV AAV vector particles in peptide-immunized mice; assay type: in vivo; settings: 10^9 AAV vector particles IV twice at an interval of 6 weeks
Source text: Mice immunized with peptide of SEQ ID NO: 18 are then used for direct IV administration of 10^9 AAV vector particles administered twice at an interval of 6 weeks.

[1] = tested on: CD4+ T cells to the AAV capsid; assay: Functional assay of spleen CD4+ T cells after subcutaneous immunisation with peptide in alum; assay type: in vivo, mice; settings: 4 subcutaneous administrations at fortnight intervals with alum; spleen 10 days after last immunization
[2] = tested on: class II-restricted effector CD4+ T cells; assay: Peptide added to dendritic cells in cultures with class II-restricted effector CD4+ T cells; assay type: cell-based, human
Procedure: Naïve human CD4+ T cells are obtained from peripheral blood of subjects carrying either the DQ2 or DQ8 haplotype using microbeads coated with an anti-CD4+ antibody. Such cells are incubated with autologous dendritic cells derived from peripheral blood monocytes and loaded with peptide of sequence (SEQ ID NO: 19) so as to obtain effector CD4+ T cells.
In parallel experiments, a peptide of same sequence but containing a potentiating motif within flanking residues is used. Thus, a peptide of sequence (SEQ ID NO: 20) is produced, which contains in its flanking residues a sequence derived from an antibody to CD4, specific for the second extracellular domain of CD4.

SEQ ID NO: 17: AAV VP1 capsid peptide encompassing an epitope activating CD4+ T cells (FNGLDKGEPVNEA; AAV)
specificity of CD4+ T cell activation by thymidine incorporation as a marker of proliferation (CD4+ T cells): confirmed to be specific

SEQ ID NO: 18: AAV VP1 epitope with a cysteine residue added to flanking regions on each side (HCFNGLDKGEPVNEACH; SEQ 17 + Cys and Cys)
immune response towards the AAV vector (AAV vector): do not mount an immune response towards the AAV vector | activity of CD4+ T cells obtained by the immunisation schedule [1]: exert a regulatory activity

SEQ ID NO: 20: peptide of same sequence as SEQ ID NO: 19 with flanking sequence derived from an antibody to CD4 (QLQPFPQPQLPYPQRYD; SEQ I9 + CD4 motif)
apoptosis of antigen-presenting dendritic cell and bystander effector CD4+ T cells [2]: induction of apoptosis | conversion of effector CD4+ T cells [2]: conversion of effector CD4+ T cells into cells with strong regulatory activity
